Test results taken from US11246834B2, “Nutraceutical or pharmaceutical composition for use in the treatment of polycystic ovary syndrome or of diseases or disorders related thereto” (S&R FARMACEUTICI S.P.A., priority 2016, dated 2022).

Assays:
[1] = system: HEK293 cells; assay: MTT test of cellular metabolism under hydrogen peroxide oxidative stress; format: cell-based, Human; conditions: HEK293, 300 μM hydrogen peroxide; 40 μM myoinositol + 100 μM D-chiro inositol and/or 10 μM resveratrol
Description: (§1) The measures have been performed in triplicate. Left (MTT) and (cell count). Human embryonic kidney HEK293 cells were grown in adherence in a growth medium consisting of DMEM supplemented with 10% fetal bovine serum (FBS) for 24 hours before being treated with 300 μM hydrogen peroxide in the presence of inositols (MI-D-chirol, 40 μM myoinositol and 100 μM D-chiro inositol, molar ratio MI/D-ChiroI=0.4) or resveratrol (10 μM) or in a combination of inositol and resveratrol. The effects of treatments on cellular metabolism were evaluated by the MTT test, while on the proliferation by cell count in Burker's chamber and all effects were compared with growing cells under controlled conditions (DMEN+10% FBS). The inositol concentrations were chosen based on the myo-inositol (MI) plasma concentration (26), and considering the molar ratio MI/D-Chirol=0.4 according to the invention, while the resveratrol concentration (10 μM) was chosen considering the plasma concentration expected after a treatment regime with resveratrol supported on hydroxide such as that from […]. […] Oxidative stress aggravates the pathological state of PCOS along with hormonal imbalance (27).

[2] = system: HEK293 cells; assay: Cell count in Burker's chamber (proliferation) under hydrogen peroxide oxidative stress; format: cell-based, Human; conditions: HEK293, 300 μM hydrogen peroxide; 40 μM myoinositol + 100 μM D-chiro inositol and/or 10 μM resveratrol
Description: as §1

Oc1ccc(C=Cc2cc(O)cc(O)c2)cc1 [resveratrol]
effect on the anti-proliferative effect of oxidative stress, metabolic activity (MTT) [1]: only partially counteracted | effect on the anti-proliferative effect of oxidative stress, cell number (cell count) [2]: only partially counteracted
